Assay results from patent EP2970215B1, “PYRROLIDINE DERIVATIVES, PHARMACEUTICAL COMPOSITIONS CONTAINING THEM, AND THEIR USE IN THERAPY” (AbbVie Deutschland GmbH & Co. KG, priority 2013, dated 2014).

What follows are compounds tested against T1, human GlyT1c transporter (Homo sapiens, UniProt P48067) (assay: Radioligand binding assay using recombinant CHO cell membranes expressing human GlyT1). Conditions: radioligand binding to human GlyT1c transporter-expressing membranes.
T1 construct: expressed in transfected cells; host or cells: CHO cells (recombinant; line hGlyT1c_5_CHO is named for the uptake assay)
T1 sequence (P48067 1-706): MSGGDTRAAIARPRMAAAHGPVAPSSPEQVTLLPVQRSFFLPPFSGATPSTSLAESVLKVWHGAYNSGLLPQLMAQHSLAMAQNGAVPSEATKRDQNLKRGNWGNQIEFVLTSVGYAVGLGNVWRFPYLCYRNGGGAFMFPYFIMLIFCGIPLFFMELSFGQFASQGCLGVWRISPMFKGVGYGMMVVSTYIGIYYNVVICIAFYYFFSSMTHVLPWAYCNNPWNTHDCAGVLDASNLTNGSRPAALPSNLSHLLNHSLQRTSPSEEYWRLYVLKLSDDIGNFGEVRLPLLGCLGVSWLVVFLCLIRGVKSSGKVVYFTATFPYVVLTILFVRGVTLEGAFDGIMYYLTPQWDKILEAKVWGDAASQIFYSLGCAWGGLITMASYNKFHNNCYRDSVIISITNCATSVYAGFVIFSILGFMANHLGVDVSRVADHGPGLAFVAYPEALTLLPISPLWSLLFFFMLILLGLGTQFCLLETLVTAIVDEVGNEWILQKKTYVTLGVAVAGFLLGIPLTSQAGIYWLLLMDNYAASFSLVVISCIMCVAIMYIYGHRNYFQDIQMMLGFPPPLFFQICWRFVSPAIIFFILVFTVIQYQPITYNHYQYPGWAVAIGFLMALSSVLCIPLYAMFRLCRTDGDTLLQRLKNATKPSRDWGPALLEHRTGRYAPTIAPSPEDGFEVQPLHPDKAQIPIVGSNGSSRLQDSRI
Source text: 2. Radioligand binding assays using recombinant CHO cell membranes expressing human GlyT1: […]

Structure (SMILES)	Ki
Cn1cnc(S(=O)(=O)N2C[C@@H](S(=O)(=O)c3ccccc3)[C@H](c3ccccc3)C2)c1 (relative stereo) [Example 385, 1-methyl-4-{[trans-3-phenyl-4-(phenylsulfonyl)pyrrolidin-1-yl]sulfonyl}-1H-imidazole]	≤ 10000 nM
Cn1cnc(S(=O)(=O)N2C[C@@H](Nc3ccccc3)[C@H](c3cccc(F)c3)C2)c1 (relative stereo) [Example 185, trans-4-(3-fluorophenyl)-1-[(1-methyl-1H-imidazol-4-yl)sulfonyl]-N-phenylpyrrolidin-3-amine]	≤ 10000 nM
Cn1cnc(S(=O)(=O)N2C[C@@H](C(=O)Nc3ccccc3)[C@H](c3ccc(F)cc3)C2)c1 (relative stereo) [Example 242, trans-4-(4-fluorophenyl)-1-[(1-methyl-1H-imidazol-4-yl)sulfonyl]-N-phenylpyrrolidine-3-carboxamide]	≤ 10000 nM
Cn1cnc(S(=O)(=O)N2C[C@@H](CNc3ccc(F)c(Cl)c3)[C@H](c3ccc(F)cc3)C2)c1 (relative stereo) [Example 314, 3-chloro-4-fluoro-N-({trans-4-(4-fluorophenyl)-1-[(1-methyl-1H-imidazol-4-yl)sulfonyl]pyrrolidin-3-yl}methyl)aniline]	≤ 1000 nM
Cc1ccc(CCN[C@H]2CN(S(=O)(=O)c3cn(C)cn3)C[C@@H]2c2ccccc2)cc1 [Example 461, (3R,4S)-1-[(1-methyl-1H-imidazol-4-yl)sulfonyl]-N-[2-(4-methylphenyl)ethyl]-4-phenylpyrrolidin-3-amine]	≤ 1000 nM

Continued, values first:

Ki	Structure (SMILES)
≤ 100 nM	Cn1cnc(S(=O)(=O)N2C[C@@H](Nc3cccc(OC(F)(F)F)c3)[C@H](c3ncccc3F)C2)c1 (relative stereo) [Example 799, Trans-4-(3-fluoropyridin-2-yl)-1-[(1-methyl-1H-imidazol-4-yl)sulfonyl]-N-[3-(trifluoromethoxy)phenyl]pyrrolidin-3-amine]
≤ 1000 nM	Cn1cnc(S(=O)(=O)N2C[C@@H](Nc3ccc(C(F)(F)F)cc3)[C@H](c3ccccc3)C2)c1 (relative stereo) [Example 68, trans-1-[(1-methyl-1H-imidazol-4-yl)sulfonyl]-4-phenyl-N-[4-(trifluoromethyl)phenyl]pyrrolidin-3-amine]
≤ 100 nM	Cn1cnc(S(=O)(=O)N2C[C@@H](Nc3cccc(Cl)c3)[C@H](c3ccccc3)C2)c1 (relative stereo) [Example 74, trans-N-(3-chlorophenyl)-1-[(1-methyl-1H-imidazol-4-yl)sulfonyl]-4-phenylpyrrolidin-3-amine]
≤ 100 nM	Cn1cnc(S(=O)(=O)N2C[C@@H](Nc3cccc(C(F)(F)F)c3)[C@H](c3ccccc3Cl)C2)c1 (relative stereo) [Example 255, trans-4-(2-chlorophenyl)-1-[(1-methyl-1H-imidazol-4-yl)sulfonyl]-N-[3-(trifluoromethyl)phenyl]pyrrolidin-3-amine]
≤ 1000 nM	Cn1cnc(S(=O)(=O)N2C[C@@H](Nc3ccc(F)c(F)c3)[C@H](c3cccc(F)c3)C2)c1 (relative stereo) [Example 197, trans-N-(3,4-difluorophenyl)-4-(3-fluorophenyl)-1-[(1-methyl-1H-imidazol-4-yl)sulfonyl]pyrrolidin-3-amine]
≤ 100 nM	Cn1cnc(S(=O)(=O)N2C[C@H](C(=O)NCc3ccc(C(F)(F)F)cc3Cl)[C@@H](c3ccc(F)cc3)C2)c1 [Example 663, (3R,4S)-N-[2-chloro-4-(trifluoromethyl)benzyl]-4-(4-fluorophenyl)-1-[(1-methyl-1H-imidazol-4-yl)sulfonyl]pyrrolidine-3-carboxamide]

Same assay, conditions: radioligand binding, recombinant CHO cell membranes expressing human GlyT1c

Structure (SMILES)	Ki
CCCCCCNC1CN(S(=O)(=O)c2cn(C)cn2)CC1[C@H]1CCCO1 (stereo partly drawn) [Example 820, N-Hexyl-1-[(1-methyl-1H-imidazol-4-yl)sulfonyl]-4-[(2R)-tetrahydrofuran-2-yl]pyrrolidin-3-amine]	≤ 10000 nM
